Structures can show the parent of a compound that is named as a salt. ± gives the standard deviation of the averaged measurements.
System: SW1353
Assay: relative viability vs DMSO control (72 h) (fraction); higher = more viable cells
In short: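 Densities for seeding sarcoma cell lines into 384-well plates were set to give 80–90% confluence. After 24 h, 2.5 µl of serially diluted compound from source plates of 10 mM to 0.0002 mM went in, and plates stayed 72 h at 37 °C in 5% CO2 with 0.1% DMSO vehicle and a 5 µM positive control. Percent growth from ATPLite readings, averaged over up to triplicate wells, served as relative viability, rescaled so 1 means full and 0 means none.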

SMILES	relative viability (0.00017 µM)	relative viability (0.00051 µM)	relative viability (0.00152 µM)	relative viability (0.00457 µM)	relative viability (0.01372 µM)	relative viability (0.04115 µM)	relative viability (0.1235 µM)	relative viability (0.3704 µM)	relative viability (1.111 µM)	relative viability (3.333 µM)	relative viability (10 µM)
Cc1cc(C)c(/C=C2\C(=O)Nc3ccccc32)[nH]1 [Semaxanib]	0.919 ± 0.019	0.8637 ± 0.004	0.898 ± 0.032	0.897 ± 0.043	0.865 ± 0.022	0.895 ± 0.052	0.892 ± 0.016	0.886 ± 0.017	0.872 ± 0.04	0.818 ± 0.022	0.788 ± 0.032
CC1(C)CNc2cc(NC(=O)c3cccnc3NCc3ccncc3)ccc21 [Motesanib]	0.993 ± 0.037	1.01 ± 0.013	1.02 ± 0.011	1 ± 0.018	0.997 ± 0.03	1.01 ± 0.012	0.963 ± 0.031	0.964 ± 0.016	0.977 ± 0.025	0.935 ± 0.023	0.898 ± 0.025
CNC(=O)c1ccc(-c2cnc3ncc(Cc4ccc5ncccc5c4)n3n2)cc1F [Capmatinib]	0.958 ± 0.038	0.979 ± 0.033	0.973 ± 0.029	0.986 ± 0.063	0.974 ± 0.019	0.964 ± 0.049	1.01 ± 0.036	0.98 ± 0.044	1.05 ± 0.025	1.07 ± 0.011	1.03 ± 0.018
CC(C)N1CCN(Cc2cnc(-c3cc(-c4cccc5[nH]ccc45)cc4[nH]ncc34)o2)CC1 [Nemiralisib]	1.07 ± 0.033	0.997 ± 0.044	0.992 ± 0.023	0.99 ± 0.032	0.983 ± 0.02	0.965 ± 0.043	0.948 ± 0.04	0.914 ± 0.025	0.85 ± 0.053	0.721 ± 0.044	0.59 ± 0.067
CO[C@H]1C[C@@H]2CC[C@@H](C)[C@@](O)(O2)C(=O)C(=O)N2CCCC[C@H]2C(=O)O[C@H]([C@H](C)C[C@@H]2CC[C@@H](OP(C)(C)=O)[C@H](OC)C2)CC(=O)[C@H](C)/C=C(\C)[C@@H](O)[C@@H](OC)C(=O)[C@H](C)C[C@H](C)/C=C/C=C/C=C/1C [Ridaforolimus]	0.961 ± 0.028	0.905 ± 0.041	0.805 ± 0.012	0.771 ± 0.011	0.747 ± 0.029	0.742 ± 0.033	0.723 ± 0.016	0.72 ± 0.035	0.702 ± 0.012	0.707 ± 0.012	0.682 ± 0.023
Nc1cc(C(F)(F)F)c(-c2cc(N3CCOCC3)nc(N3CCOCC3)n2)cn1 [Buparlisib]	0.984 ± 0.018	0.956 ± 0.011	0.971 ± 0.011	0.982 ± 0.042	0.966 ± 0.059	0.9295 ± 0.0043	0.889 ± 0.03	0.835 ± 0.018	0.654 ± 0.0079	0.381 ± 0.015	0.266 ± 0.0047
Cc1ccc(F)c(NC(=O)Nc2ccc(-c3cccc4[nH]nc(N)c34)cc2)c1 [Linifanib]	1.08 ± 0.035	0.998 ± 0.023	1.02 ± 0.012	1.02 ± 0.015	1 ± 0.036	1.01 ± 0.057	0.982 ± 0.055	1.037 ± 0.009	1.07 ± 0.018	1.07 ± 0.036	0.9638 ± 0.0037
N#CC[C@H](C1CCCC1)n1cc(-c2ncnc3[nH]ccc23)cn1 [Ruxolitinib]	1.049 ± 0.0061	1.1 ± 0.052	1.1 ± 0.027	1.09 ± 0.029	1.09 ± 0.029	1.09 ± 0.014	1.05 ± 0.021	1.04 ± 0.011	1.03 ± 0.038	1.02 ± 0.033	0.807 ± 0.012
C=CC(=O)Nc1cccc(Oc2nc(Nc3ccc(N4CCN(C)CC4)cc3)nc3ccsc23)c1 [Olmutinib]	1.03 ± 0.048	1.06 ± 0.059	1.04 ± 0.013	1.04 ± 0.048	1.03 ± 0.038	1.02 ± 0.03	0.997 ± 0.031	0.95 ± 0.086	0.857 ± 0.021	0.755 ± 0.012	0.104 ± 0.0062
CCCS(=O)(=O)Nc1ccc(F)c(C(=O)c2c[nH]c3ncc(-c4ccc(Cl)cc4)cc23)c1F [Vemurafenib]	0.958 ± 0.033	0.979 ± 0.055	0.965 ± 0.038	0.954 ± 0.052	1.01 ± 0.011	0.993 ± 0.022	0.949 ± 0.032	0.981 ± 0.031	0.925 ± 0.015	0.703 ± 0.024	0.567 ± 0.14
Cc1ccc(NC(=O)c2ccc(CN3CCN(C)CC3)cc2)cc1Nc1nc(-c2cccnc2)cs1 [Masitinib]	1.03 ± 0.017	0.998 ± 0.012	0.986 ± 0.023	0.9886 ± 0.0079	0.989 ± 0.014	1.018 ± 0.0045	0.925 ± 0.006	0.86 ± 0.049	0.755 ± 0.047	0.478 ± 0.026	0.032 ± 0.0052
Cc1cnc(Nc2ccc(OCCN3CCCC3)cc2)nc1Nc1cccc(S(=O)(=O)NC(C)(C)C)c1 [Fedratinib]	1.058 ± 0.01	1.02 ± 0.05	1.03 ± 0.038	1.02 ± 0.016	0.987 ± 0.048	1 ± 0.046	0.915 ± 0.018	0.764 ± 0.036	0.533 ± 0.022	0.184 ± 0.0053	0.00437 ± 0.0012
C[C@@H](c1ccc2nccn2c1)n1nnc2ncc(-c3cnn(C)c3)nc21 [Volitinib]	1.01 ± 0.033	1.01 ± 0.011	0.998 ± 0.028	1.02 ± 0.019	1.02 ± 0.044	1 ± 0.048	1.01 ± 0.045	0.976 ± 0.026	1.03 ± 0.016	0.987 ± 0.035	1.02 ± 0.023
COc1cccc2c1C(=O)c1c(O)c3c(c(O)c1C2=O)C[C@@](O)(C(=O)CO)C[C@@H]3O[C@H]1C[C@H](N)[C@H](O)[C@H](C)O1 [Doxorubicin Hydrochloride]	0.948 ± 0.043	0.971 ± 0.029	0.958 ± 0.022	0.949 ± 0.013	0.882 ± 0.043	0.81 ± 0.013	0.661 ± 0.029	0.376 ± 0.017	0.162 ± 0.0035	0.181 ± 0.011	0.115 ± 0.0047
CCN1CCN(Cc2ccc(Nc3ncc(F)c(-c4cc(F)c5nc(C)n(C(C)C)c5c4)n3)nc2)CC1 [Abemaciclib]	0.958 ± 0.031	0.974 ± 0.017	0.976 ± 0.021	0.944 ± 0.011	0.9333 ± 0.0082	0.884 ± 0.033	0.778 ± 0.023	0.74 ± 0.021	0.699 ± 0.024	0.73 ± 0.046	0.721 ± 0.047
C=CC(=O)N1CCC([C@@H]2CCNc3c(C(N)=O)c(-c4ccc(Oc5ccccc5)cc4)nn32)CC1 [Zanubrutinib]	1.07 ± 0.066	1.05 ± 0.048	1.04 ± 0.034	1.03 ± 0.038	1.03 ± 0.044	1.03 ± 0.044	1.02 ± 0.029	0.965 ± 0.034	0.917 ± 0.057	0.828 ± 0.041	0.657 ± 0.023
COc1cc2/c(=N/c3ccc(Br)cc3F)nc[nH]c2cc1OCC1CCN(C)CC1 [Vandetanib]	0.952 ± 0.029	0.962 ± 0.017	0.941 ± 0.04	0.988 ± 0.018	0.976 ± 0.029	0.952 ± 0.032	0.957 ± 0.045	0.9245 ± 0.0051	0.92 ± 0.013	0.558 ± 0.019	0.0143 ± 0.0022
C[C@@H]1COCCN1c1cc(-c2ccnn2C)c2ccnc(-c3ccn[nH]3)c2n1	0.988 ± 0.026	0.94 ± 0.015	0.974 ± 0.035	0.978 ± 0.065	0.933 ± 0.059	0.872 ± 0.028	0.769 ± 0.026	0.624 ± 0.027	0.507 ± 0.0081	0.41 ± 0.005	0.392 ± 0.014
C[C@]1(O)C[C@@H](c2nc(-c3ccc4ccc(-c5ccccc5)nc4c3)c3c(N)nccn32)C1 [Linsitinib]	1.03 ± 0.017	1 ± 0.024	1.03 ± 0.03	0.977 ± 0.024	1.03 ± 0.017	1.01 ± 0.014	0.978 ± 0.041	0.967 ± 0.029	0.9847 ± 0.0087	0.949 ± 0.05	0.866 ± 0.024
